# According to publication doi:10.1101/2021.09.30.462449v1 (biorxiv, 2021):
# Target: PL^pro (Severe acute respiratory syndrome coronavirus 2, UniProt P0DTD1)
# Assay: FRET peptide cleavage assay
# Format: biochemical
row,Compound,IC50
1,"COc1ccc2nc3cc(Cl)ccc3c(Nc3ccc(O)cc3)c2c1 [compound 2, 4-[(6-chloro-2-methoxyacridin-9-yl)amino]phenol]",> 20 µM
2,"COc1ccc2nc3cc(Cl)ccc3c(Nc3cc(CN(C)C)c(O)c(CN(C)C)c3)c2c1 [compound 3, 4-[(6-chloro-2-methoxyacridin-9-yl)amino]-2,6-bis[(dimethylamino)methyl]phenol]",3.28 ± 0.4 µM
3,"COc1ccc2nc3cc(Cl)ccc3c(Nc3ccc(O)c(CN4CCCC4)c3)c2c1 [compound 4, 4-[(6-chloro-2-methoxyacridin-9-yl)amino]-2-(pyrrolidin-1-ylmethyl)phenol]",2.56 ± 0.28 µM
4,"COc1ccc2nc3cc(Cl)ccc3c(Nc3cc(CN4CCCC4)c(O)c(CN4CCCC4)c3)c2c1 [compound 5, 4-[(6-chloro-2-methoxyacridin-9-yl)amino]-2,6-bis(pyrrolidin-1-ylmethyl)phenol]",2.44 ± 0.53 µM
5,"COc1ccc2nc3cc(Cl)ccc3c(O)c2c1 [compound 6, 6-chloro-2-methoxyacridin-9-ol]",> 20 µM
6,"COc1ccc2nc3cc(Cl)ccc3c(N3CCOCC3)c2c1 [compound 7, 6-chloro-2-methoxy-9-morpholin-4-ylacridine]",> 20 µM
7,"N#Cc1c(N2CCOCC2)ncc2cc3ccccc3nc12 [compound 9, 3-morpholin-4-ylbenzo[b]-1,6-naphthyridine-4-carbonitrile]",> 20 µM
8,"N#Cc1c(N2CCOCC2)ncc2c(=O)c3ccccc3[nH]c12 [compound 10, 3-morpholin-4-yl-10-oxo-5,10-dihydrobenzo[b]-1,6-naphthyridine-4-carbonitrile]",> 20 µM
